Patent US10653744B2, “Formulations and methods for treating ulcerative colitis” (priority 2016, dated 2020)
Positions of bridges follow the written chain, without caps; N, C: chain ends. Non-standard residues stand in square brackets, D forms with d. No end group written: not given here.

Columns and labels:
[1] = system: patients with mild to moderate ulcerative colitis; test: Double-blind, placebo-controlled, four-week study of rectal dolcanatide in ulcerative colitis patients; type: in vivo, human; conditions: for improvement of ulcerative colitis symptoms compared with placebo-treated patients: 6 mg dissolved in saline, intra-rectally every evening for 28 days, 28 patients
Description: A double-blind, placebo-controlled, four-week study evaluating 28 patients with mild-to-moderate ulcerative colitis was conducted. Patients received 6 mg Dolcanatide dissolved in saline administered intra-rectally each evening for 28 days.
A double-blind, placebo-controlled, four week study was performed evaluating 28 patients with mild to moderate ulcerative colitis. Subjects were treated with either saline (placebo) or Dolcanatide (SP-333; SEQ ID NO: 9). Six mg of Dolcanatide was dissolved in saline and administered intra-rectally every evening for 28 days.

[2] = system: DSS-induced acute colitis; conditions: oral treatment, murine model; cited from earlier work
[3] = system: TNBS-induced acute colitis; conditions: oral treatment, murine model; cited from earlier work

dAsn^1-Asp^2-Glu^3-Cys^4-Glu^5-Leu^6-Cys^7-Val^8-Asn^9-Val^10-Ala^11-Cys^12-Thr^13-Gly^14-Cys^15-dLeu^16 ([dN]DECELCVNVACTGC[dL]; disulfide 4-12, 7-15; ends not checked) [Dolcanatide]
improvement of ulcerative colitis symptoms compared with placebo-treated patients [1]: Improved Ulcerative Colitis Symptoms | improvement of ulcerative colitis symptoms compared with placebo-treated patients ([1]; listed as dolcanatide): clear signals of improvement | safety and tolerability ([1]; 6 mg intra-rectally each evening for 28 days): safe and well tolerated | remission from ulcerative colitis symptoms ([1]; after 28 days of treatment, 6 mg intra-rectally every evening): in remission from their ulcerative colitis symptoms | effect on DSS-induced acute colitis [2]: ameliorate | effect on TNBS-induced acute colitis [3]: ameliorate
